From the supplement of paper PMC9103864 come the findings set out here.

The test system of test [1] is BMSC (primary human bone marrow mesenchymal stromal cells). Nature of the test: absolute EC50 for viability; higher = less sensitive.
For test [2] the test system is unchanged. Nature of the test: drug sensitivity score (DSS); higher = more sensitive.

The structures appear in SMILES notation.

As for `Cc1c(-c2c(-c3ccc(F)o3)sc3ncnc(O[C@H](Cc4ccccc4OCc4ccnn4CC(F)(F)F)C(=O)O)c23)ccc(OCCN2CCN(C)CC2)c1Cl`, the “absolute EC50 for viability” value in test [1] is more than 1 µM. In addition, in test [2], the drug sensitivity score amounted to 0.
In the case of `CONC(=O)c1ccccc1Nc1cc(Nc2cc(C)nn2C(C)C)ncc1Cl`, in test [1], the “absolute EC50 for viability” value was more than 1 µM. This compound also came in with a drug sensitivity score in test [2] of 0.1.
Regarding `O=C(c1ccc(OCCN2CCCCC2)cc1)c1c(-c2ccc(O)cc2)sc2cc(O)ccc12` [Raloxifene], the “absolute EC50 for viability” value in test [1] was 7.96 µM. Moreover, the drug sensitivity score in test [2] came out at 2.6.
With `O=c1[nH]cc(F)c(=O)[nH]1` [Fluorouracil], the “absolute EC50 for viability” value in test [1] was more than 10 µM. In test [2], this compound had a drug sensitivity score of 0.9.
In the same order, the values of `CC[C@]1(O)C[C@H]2CN(CCc3c([nH]c4ccccc34)[C@@](C(=O)OC)(c3cc4c(cc3OC)N(C=O)[C@H]3[C@@](O)(C(=O)OC)[C@H](OC(C)=O)[C@]5(CC)C=CCN6CC[C@]43[C@@H]65)C2)C1` [Vincristine] are more than 1 µM and 3.4.
On to `CC(=O)O[C@@]12CO[C@@H]1C[C@H](O)[C@@]1(C)C(=O)[C@H](O)C3=C(C)[C@@H](OC(=O)[C@H](O)[C@@H](NC(=O)OC(C)(C)C)c4ccccc4)C[C@@](O)([C@@H](OC(=O)c4ccccc4)[C@H]21)C3(C)C` [Docetaxel], for which the “absolute EC50 for viability” value in test [1] is more than 1 µM. In test [2], the drug sensitivity score is 5.
On to `CC(=O)N(O)CCCCCNC(=O)CCC(=O)N(O)CCCCCNC(=O)CCC(=O)N(O)CCCCCN` [Deferoxamine], for which the “absolute EC50 for viability” value in test [1] was more than 10 µM. This compound gave a drug sensitivity score in test [2] of 0.
Taken in the same sequence, the figures for `O=C(/C=C\n1cnc(-c2cc(C(F)(F)F)cc(C(F)(F)F)c2)n1)NNc1cnccn1` [Selinexor] were more than 10 µM and 3.1.
In the case of `CC[C@@]1(O)C(=O)OCc2c1cc1n(c2=O)Cc2cc3c(CN(C)C)c(O)ccc3nc2-1` [Topotecan], the “absolute EC50 for viability” value in test [1] is more than 10 µM. The drug sensitivity score in test [2] was 4.4.
As for `N#CC1(c2ccc(NC(=O)c3cccnc3NCc3ccncc3)cc2)CCCC1` [Apatinib], the “absolute EC50 for viability” value in test [1] was more than 10 µM. The compound also yielded a drug sensitivity score in test [2] of 0.1.
`O[C@H]1CC[C@H](Nc2ncc3nc(Nc4c(F)cc(F)cc4F)n([C@H]4CCOC4)c3n2)CC1` [Tanzisertib]: in test [1], the “absolute EC50 for viability” value is more than 10 µM. Moreover, the drug sensitivity score in test [2] is 0.3.
With `NC(=O)NO` [Hydroxyurea], in test [1], the “absolute EC50 for viability” value is more than 1000 µM. In test [2], this compound came in with a drug sensitivity score of -2.9.
On to `CC(C)[C@@H](CS(=O)(=O)C(C)C)N1C(=O)[C@@](C)(CC(=O)O)C[C@H](c2cccc(Cl)c2)[C@H]1c1ccc(Cl)cc1` [AMG-232], for which, in test [1], the “absolute EC50 for viability” value stood at 0.185 µM. This compound also gave a drug sensitivity score in test [2] of 18.7.
As to `NC(=S)N/N=C/c1ncccc1N` [Triapine], in test [1], the “absolute EC50 for viability” value was more than 10 µM. In test [2], this compound yielded a drug sensitivity score of 0.
In the same order, the values of `Oc1ccc2c(c1)CC[C@H](c1ccccc1)[C@@H]2c1ccc(OCCN2CCCC2)cc1` [Lasofoxifene] are more than 1 µM and 0.4.
In the same order, the values of `CCc1c(C(=O)C(N)=O)c2c(OCC(=O)O)cccc2n1Cc1ccccc1` [Varespladib] are more than 10 µM and 0.
As to `Cc1cccc(-c2nn3c(c2-c2ccnc4ccc(C(N)=O)cc24)CCC3)n1` [Galunisertib], in test [1], the “absolute EC50 for viability” value was more than 1 µM. This compound also showed a drug sensitivity score in test [2] of 0.
In the same order, the values of `CN1CCC(CNc2ccc3ncc(-c4cccc(OC(F)(F)F)c4)n3n2)CC1` [SGI-1776] are 1.4 µM and 9.6.
Turning to `C=C(c1ccc(C(=O)O)cc1)c1cc2c(cc1C)C(C)(C)CCC2(C)C` [Bexarotene], the “absolute EC50 for viability” value in test [1] was more than 10 µM. The compound also had a drug sensitivity score in test [2] of 0.
As to `CCn1c(-c2nonc2N)nc2c(C#CC(C)(C)O)ncc(OC[C@H]3CCCNC3)c21`, the “absolute EC50 for viability” value in test [1] is more than 10 µM. In addition, the drug sensitivity score in test [2] turned out to be 6.3.
With `CN(C)C(=N)NC(=N)N` [Metformin], the “absolute EC50 for viability” value in test [1] is more than 100 µM. The drug sensitivity score in test [2] is 0.
Consider `CC[C@H](CO)Nc1nc(NCc2ccccc2)c2ncn(C(C)C)c2n1` [Seliciclib], for which the “absolute EC50 for viability” value in test [1] is more than 10 µM. Moreover, in test [2], the drug sensitivity score was 0.
Taken in the same sequence, the figures for `CC(C)C(=O)Nc1ccc([N+](=O)[O-])c(C(F)(F)F)c1` [Flutamide] were more than 10 µM and 0.
In the same order, the values of `CC(C)Nc1cc(-c2c[nH]c(C(=O)N[C@H](CO)c3cccc(Cl)c3)c2)c(Cl)cn1` [Ulixertinib] are more than 10 µM and 2.4.
As to `CC(C)(C)c1cnc(CSc2cnc(NC(=O)C3CCNCC3)s2)o1` [SNS-032], the “absolute EC50 for viability” value in test [1] is more than 10 µM. The drug sensitivity score in test [2] came out at 12.8.
On to `COc1cc(NS(C)(=O)=O)ccc1Nc1c2ccccc2nc2ccccc12` [Amsacrine], for which the “absolute EC50 for viability” value in test [1] was more than 10 µM. This compound returned a drug sensitivity score in test [2] of 2.8.
For `Cn1cncc1[C@@](N)(c1ccc(Cl)cc1)c1ccc2c(c1)c(-c1cccc(Cl)c1)cc(=O)n2C` [Tipifarnib], the “absolute EC50 for viability” value in test [1] was more than 10 µM. This compound came in with a drug sensitivity score in test [2] of 4.4.
Regarding `CN1CCN(c2cc(C(=O)Nc3ccc4c(c3)-c3c(c(C(N)=O)nn3-c3ccc(F)cc3)CC4)c(Cl)cn2)CC1` [PHA 408], the “absolute EC50 for viability” value in test [1] is more than 10 µM. The drug sensitivity score in test [2] came out at 1.3.
In the same order, the values of `CO[C@@H](C)Cn1c(=O)n(C)c2cnc3ccc(-c4cncc(C(C)(C)O)c4)cc3c21` are 0.257 µM and 10.5.
In the same order, the values of `CCCCC(=O)OCC(=O)[C@]1(O)Cc2c(O)c3c(c(O)c2[C@@H](O[C@H]2C[C@H](NC(=O)C(F)(F)F)[C@H](O)[C@H](C)O2)C1)C(=O)c1c(OC)cccc1C3=O` [Valrubicin] are 0.489 µM and 10.8.
Turning to `CCc1c2c(nc3ccc(O)cc13)-c1cc3c(c(=O)n1C2)COC(=O)[C@]3(O)CC` [SN-38], the “absolute EC50 for viability” value in test [1] was 1.52 µM. The drug sensitivity score in test [2] was 10.
Consider `Cn1ncnc1[C@H]1c2n[nH]c(=O)c3cc(F)cc(c23)N[C@@H]1c1ccc(F)cc1` [Talazoparib], for which, in test [1], the “absolute EC50 for viability” value is more than 1 µM. In test [2], the drug sensitivity score turned out to be 1.
Take `CCN(CCCOc1ccc2c(Nc3cc(CC(=O)Nc4cccc(F)c4)[nH]n3)ncnc2c1)CCOP(=O)(O)O` [Barasertib]: the “absolute EC50 for viability” value in test [1] was more than 1 µM. In test [2], this compound returned a drug sensitivity score of 0.1.
`NC(=O)Nc1cc(-c2cccc(F)c2)sc1C(=O)N[C@H]1CCCNC1` [AZD7762]: the “absolute EC50 for viability” value in test [1] was more than 1 µM. This compound returned a drug sensitivity score in test [2] of 7.2.
Turning to `CS(=O)(=O)c1ccc(C(=O)Nc2ccc(Cl)c(-c3ccccn3)c2)c(Cl)c1` [Vismodegib], the “absolute EC50 for viability” value in test [1] was more than 10 µM. The compound also gave a drug sensitivity score in test [2] of 0.
On to `CC/C(=C(\c1ccccc1)c1ccc(OCCN(C)C)cc1)c1ccccc1` [Tamoxifen], for which, in test [1], the “absolute EC50 for viability” value was more than 10 µM. In test [2], the drug sensitivity score is 0.
Taken in the same sequence, the figures for `Oc1nc(-c2ccc(C(F)(F)F)cc2)nc2c1CSCC2` [XAV-939] were more than 10 µM and 1.5.
